Measured values from patent publication US20260258035A1, “FIVE-MEMBERED AND SIX-MEMBERED NITROGEN-CONTAINING COMPOUND, AND INTERMEDIATE, PREPARATION METHOD AND USE THEREOF” (HANGZHOU SYNRX THERAPEUTICS BIOMEDICAL TECHNOLOGY CO., LTD., priority 2022, published 2026).
Where two headings read alike, the source gives them in different places.

Assays:
PARG = PARG (Homo sapiens, UniProt Q86W56); assay: Biochemical assay (PARG, TFMU-ADPr substrate)
HCC1806 = assay: Cell viability assay (CellTiter-Glo); format: cell-based, Human
[1] = Homo sapiens, HCC1806, 168 h, HCC1806, 7 days, CellTiter-Glo, read-out: IC50 (nM) in cell viability assay

Chain of PARG (Q86W56 whole entry): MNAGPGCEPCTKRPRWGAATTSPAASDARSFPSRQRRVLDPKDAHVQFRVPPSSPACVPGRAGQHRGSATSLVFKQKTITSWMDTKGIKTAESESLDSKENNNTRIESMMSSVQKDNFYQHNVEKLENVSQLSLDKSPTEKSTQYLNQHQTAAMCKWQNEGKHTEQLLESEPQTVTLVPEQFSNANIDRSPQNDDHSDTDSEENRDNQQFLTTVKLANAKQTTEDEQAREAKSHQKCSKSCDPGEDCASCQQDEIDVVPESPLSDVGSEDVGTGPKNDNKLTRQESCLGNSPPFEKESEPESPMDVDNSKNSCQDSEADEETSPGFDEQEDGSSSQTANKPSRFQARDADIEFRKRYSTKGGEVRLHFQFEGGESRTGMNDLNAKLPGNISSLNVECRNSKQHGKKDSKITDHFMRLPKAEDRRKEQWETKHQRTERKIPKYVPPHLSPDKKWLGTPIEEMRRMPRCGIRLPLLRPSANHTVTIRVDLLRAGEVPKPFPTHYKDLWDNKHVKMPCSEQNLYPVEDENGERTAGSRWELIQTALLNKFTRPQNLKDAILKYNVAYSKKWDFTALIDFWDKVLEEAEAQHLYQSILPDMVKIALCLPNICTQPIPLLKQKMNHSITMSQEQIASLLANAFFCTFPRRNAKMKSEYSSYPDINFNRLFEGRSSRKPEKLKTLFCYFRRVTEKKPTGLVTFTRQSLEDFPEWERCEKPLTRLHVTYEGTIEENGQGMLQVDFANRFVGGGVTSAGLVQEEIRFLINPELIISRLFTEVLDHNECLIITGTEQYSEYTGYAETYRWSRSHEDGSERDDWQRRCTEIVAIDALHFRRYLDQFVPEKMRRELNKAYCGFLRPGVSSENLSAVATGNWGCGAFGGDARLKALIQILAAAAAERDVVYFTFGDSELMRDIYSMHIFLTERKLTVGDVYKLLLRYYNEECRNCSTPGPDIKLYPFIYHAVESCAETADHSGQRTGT

| Compound | IC50 (PARG; PARG, TFMU-ADPr substrate) [nM] | IC50 (HCC1806; [1]) [nM] | IC50 (PARG; 4 nM PARG, 66.2 uM TFMU-ADPr, 3 min at room temperature) [nM] | IC50 (HCC1806; Homo sapiens, HCC1806, 168 h, read-out: IC50 (nM) in cell viability assay, HCC1806, 7 days, CellTiter-Glo) [nM] | IC50 (HCC1806; read-out: IC50 (nM) in cell viability assay, HCC1806, 7 days, CellTiter-Glo) [nM] |
| --- | --- | --- | --- | --- | --- |
| COC1(C(=O)N2CCN(c3cc(S(=O)(=O)NC4(C#N)CC4)cn4c(-c5nnc(C(F)F)s5)ncc34)CC2)CNC1 [Example 289, N-(1-cyanocyclopropyl)-3-(5-(difluoromethyl)-1,3,4-thiadiazol-2-yl)-8-(4-(3-methoxyazetidine-3-carbonyl)piperazin-1-yl)imidazo[1,5-a]pyridine-6-sulfonamide] | 1.51 | 6150 |  |  |  |
| C[C@H]1CN(c2cc(S(=O)(=O)NC3(C)COC3)cn3c(-c4nnc(C(F)F)s4)ncc23)C[C@H](CN(C)C)O1 [Example 398, 3-(5-(difluoromethyl)-1,3,4-thiadiazol-2-yl)-8-((2S,6S)-2-((dimethylamino)methyl)-6-methylmorpholino)-N-(3-methyloxetan-3-yl)imidazo[1,5-a]pyridine-6-sulfonamide] | 27.5 | 992 |  |  |  |
| N#CC1(NS(=O)(=O)c2cc(C3=CCN(C(=O)C4(O)CC4)CC3)c3cnc(-c4nnc(C(F)(F)F)s4)n3c2)CC1 [Example 371, N-(1-cyanocyclopropyl)-8-(1-(1-hydroxycyclopropane-1-carbonyl)-1,2,3,6-tetrahydropyridin-4-yl)-3-(5-(trifluoromethyl)-1,3,4-thiadiazol-2-yl)imidazo[1,5-a]pyridine-6-sulfonamide] | 4.57 | 360 |  |  |  |
| CCC(=O)C1CCN(c2cc(S(=O)(=O)NC3(C#N)CC3)cn3c(-c4nnc(C(F)(F)F)s4)ncc23)CC1 [Example 258, N-(1-cyanocyclopropyl)-8-(4-propionylpiperidin-1-yl)-3-(5-(trifluoromethyl)-1,3,4-thiadiazol-2-yl)imidazo[1,5-a]pyridine-6-sulfonamide] | 550 | 2830 |  |  |  |
| [2H]C([2H])([2H])OC1(C(=O)N2CCN(c3cc(S(=O)(=O)NC4(C)COC4)cn4c(-c5nnc(C(F)(F)F)s5)nc(Cl)c34)CC2)CC1 [Example 129, 1-chloro-8-(4-(1-(methoxy-d3)cyclopropane-1-carbonyl)piperazin-1-yl)-N-(3-methyloxetan-3-yl)-3-(5-(trifluoromethyl)-1,3,4-thiadiazol-2-yl)imidazo[1,5-a]pyridine-6-sulfonamide] | 0.16 | 12.7 |  |  |  |
| N#CC1(NS(=O)(=O)c2cc(N3CCN(C(=O)C4NCCS4)CC3)c3cnc(-c4nnc(C(F)(F)F)s4)n3c2)CC1 (stereo not drawn) [Example 281, N-(1-cyanocyclopropyl)-8-(4-(thiazolidine-2-carbonyl)piperazin-1-yl)-3-(5-(trifluoromethyl)-1,3,4-thiadiazol-2-yl)imidazo[1,5-a]pyridine-6-sulfonamide] | 66.1 | 229 |  |  |  |
| N#CC1(NS(=O)(=O)c2ccc3c(C4=CCC5(CNC5)C4)nc(-c4nnc(C(F)F)s4)n3c2)CC1 [Example 22, N-(1-cyanocyclopropyl)-3-(5-(difluoromethyl)-1,3,4-thiadiazol-2-yl)-1-(2-azaspiro[3.4]oct-6-en-6-yl)imidazo[1,5-a]pyridine-6-sulfonamide] | 5.17 |  | < 100 | > 30000 | 30000 |
| C[C@@H]1CN(c2cc(S(=O)(=O)NC3(C#N)CC3)cn3c(-c4nnc(C(F)F)s4)cnc23)CCN1C(=O)C1(C)CC1 [Example 204, (R)-N-(1-cyanocyclopropyl)-3-(5-(difluoromethyl)-1,3,4-thiadiazol-2-yl)-8-(3-methyl-4-(1-methylcyclopropane-1-carbonyl)piperazin-1-yl)imidazo[1,2-a]pyridine-6-sulfonamide] | 36.3 | 360 |  |  |  |
| CC1(NS(=O)(=O)c2cc(N3CCN4C(=O)NCC4C3)c3cnc(-c4nnc(C(F)(F)F)s4)n3c2)COC1 (stereo not drawn) [Example 394, N-(3-methyloxetan-3-yl)-8-(3-oxohexahydroimidazo[1,5-a]pyrazin-7(1H)-yl)-3-(5-(trifluoromethyl)-1,3,4-thiadiazol-2-yl)imidazo[1,5-a]pyridine-6-sulfonamide] | 6.56 | 1700 |  |  |  |
| N#CC1(NS(=O)(=O)c2cc(N3CCN(C(=O)[C@H]4CCNC4)CC3)c3cnc(-c4nnc(C(F)(F)F)s4)n3c2)CC1 [Example 272, (S)-N-(1-cyanocyclopropyl)-8-(4-(pyrrolidine-3-carbonyl)piperazin-1-yl)-3-(5-(trifluoromethyl)-1,3,4-thiadiazol-2-yl)imidazo[1,5-a]pyridine-6-sulfonamide] | 7.24 | 5410 |  |  |  |
| CN(C)C(=O)C1CCN(c2cc(S(=O)(=O)NC3(C#N)CC3)cn3c(-c4nnc(C(F)(F)F)s4)ncc23)CC1 [Example 214, 1-(6-(N-(1-cyanocyclopropyl)sulfamoyl)-3-(5-(trifluoromethyl)-1,3,4-thiadiazol-2-yl)imidazo[1,5-a]pyridin-8-yl)-N,N-dimethylpiperidine-4-carboxamide] | 174 | 4000 |  |  |  |
| CC(C)C(=O)N1CCN(c2cc(S(=O)(=O)NC3(C#N)CC3)cn3c(-c4nnc(C(F)(F)F)s4)cnc23)CC1 [Example 207, N-(1-cyanocyclopropyl)-8-(4-isobutyrylpiperazin-1-yl)-3-(5-(trifluoromethyl)-1,3,4-thiadiazol-2-yl)imidazo[1,2-a]pyridine-6-sulfonamide] | 39.8 | 1200 |  |  |  |
| CCNC(=O)N1CCN(c2cc(S(=O)(=O)NC3(C)COC3)cn3c(-c4nnc(C(F)(F)F)s4)ncc23)CC1 [Example 362, N-ethyl-4-(6-(N-(3-methyloxetan-3-yl)sulfamoyl)-3-(5-(trifluoromethyl)-1,3,4-thiadiazol-2-yl)imidazo[1,5-a]pyridin-8-yl)piperazine-1-carboxamide] | 6.31 | 158 |  |  |  |
| CC1(NS(=O)(=O)c2cc(N3CCN(C(=O)C4(O)CC4)CC3)c3cnc(-c4nnc(C(F)(F)F)s4)n3c2)CC1 [Example 291, 8-(4-(1-hydroxycyclopropane-1-carbonyl)piperazin-1-yl)-N-(1-methylcyclopropyl)-3-(5-(trifluoromethyl)-1,3,4-thiadiazol-2-yl)imidazo[1,5-a]pyridine-6-sulfonamide] | 9.55 | 65 |  |  |  |
| CC(=O)N1[C@@H](C)CN(c2cc(S(=O)(=O)NC3(C)COC3)cn3c(-c4nnc(C(F)F)s4)ncc23)C[C@@H]1C [Example 401, 8-((3S,5S)-4-acetyl-3,5-dimethylpiperazin-1-yl)-3-(5-(difluoromethyl)-1,3,4-thiadiazol-2-yl)-N-(3-methyloxetan-3-yl)imidazo[1,5-a]pyridine-6-sulfonamide] | 158 | 2800 |  |  |  |
| CN1CCC(F)(F)C1C(=O)N1CCN(c2cc(S(=O)(=O)NC3(C)CC3)cn3c(-c4nnc(C(F)(F)F)s4)ncc23)CC1 (stereo not drawn) [Example 351, 8-(4-(3,3-difluoro-1-methylpyrrolidine-2-carbonyl)piperazin-1-yl)-N-(1-methylcyclopropyl)-3-(5-(trifluoromethyl)-1,3,4-thiadiazol-2-yl)imidazo[1,5-a]pyridine-6-sulfonamide] | 4.13 | 163 |  |  |  |
| COc1ccc(C(=O)/C=C/C(=O)N2CCN(c3cc(S(=O)(=O)NC4(C#N)CC4)cn4c(-c5nnc(C(F)(F)F)s5)ncc34)CC2)cc1 [Example 211, (E)-N-(1-cyanocyclopropyl)-8-(4-(4-(4-methoxyphenyl)-4-oxobut-2-enoyl)piperazin-1-yl)-3-(5-(trifluoromethyl)-1,3,4-thiadiazol-2-yl)imidazo[1,5-a]pyridine-6-sulfonamide] | 209 | 222 |  |  |  |
| CC1(O)CC2(CCN(c3cc(S(=O)(=O)NC4(C#N)CC4)cn4c(-c5nnc(C(F)(F)F)s5)ncc34)CC2)C1 [Example 242, N-(1-cyanocyclopropyl)-8-(2-hydroxy-2-methyl-7-azaspiro[3.5]nonan-7-yl)-3-(5-(trifluoromethyl)-1,3,4-thiadiazol-2-yl)imidazo[1,5-a]pyridine-6-sulfonamide] | 52.5 | 2980 |  |  |  |
| N#CC1(NS(=O)(=O)c2ccc3c(C4=CC5(CC4)CN(C(=O)C4CC4(F)F)C5)nc(-c4nnc(C(F)(F)F)s4)n3c2)CC1 (stereo not drawn) [Example 232, N-(1-cyanocyclopropyl)-1-(2-(2,2-difluorocyclopropane-1-carbonyl)-2-azaspiro[3.4]oct-5-en-6-yl)-3-(5-(trifluoromethyl)-1,3,4-thiadiazol-2-yl)imidazo[1,5-a]pyridine-6-sulfonamide] | 31.6 | 953 |  |  |  |
| N#CC1(NS(=O)(=O)c2cc(N3CCN(C(=O)[C@@H]4CCCO4)CC3)c3cnc(-c4nnc(C(F)(F)F)s4)n3c2)CC1 [Example 301, (S)-N-(1-cyanocyclopropyl)-8-(4-(tetrahydrofuran-2-carbonyl)piperazin-1-yl)-3-(5-(trifluoromethyl)-1,3,4-thiadiazol-2-yl)imidazo[1,5-a]pyridine-6-sulfonamide] | 50.1 | 436 |  |  |  |
| C[C@@H]1CN(c2cc(S(=O)(=O)NC3(C)CC3)cn3c(-c4nnc(C(F)F)s4)ncc23)CCN1C(=O)C1CNC1 [Example 315, (R)-8-(4-(azetidine-3-carbonyl)-3-methylpiperazin-1-yl)-3-(5-(difluoromethyl)-1,3,4-thiadiazol-2-yl)-N-(1-methylcyclopropyl)imidazo[1,5-a]pyridine-6-sulfonamide] | 0.96 | 5700 |  |  |  |
| CC(=O)N1CC=C(c2cc(S(=O)(=O)NC3(C#N)CC3)cn3c(-c4nnc(C(F)(F)F)s4)ncc23)CC1 [Example 370, 8-(1-acetyl-1,2,3,6-tetrahydropyridin-4-yl)-N-(1-cyanocyclopropyl)-3-(5-(trifluoromethyl)-1,3,4-thiadiazol-2-yl)imidazo[1,5-a]pyridine-6-sulfonamide] | 41.7 | 240 |  |  |  |
| N#CC1(NS(=O)(=O)c2cc(N3CCNC(=O)C3)c3cnc(-c4nnc(C(F)(F)F)s4)n3c2)CC1 [Example 248, N-(1-cyanocyclopropyl)-8-(3-oxopiperazin-1-yl)-3-(5-(trifluoromethyl)-1,3,4-thiadiazol-2-yl)imidazo[1,5-a]pyridine-6-sulfonamide] | 692 | 6440 |  |  |  |
